Laboratory results as given in BindingDB's records for doi:10.1021/acschembio.6b00511 (Novartis Institutes For Biomedical Research, 2016).
“And” between values parts separate entries of the source, which are not always exact repeats. Identical values can stand only once.

Experiments:
[1] = molecular target: T1, Serine/threonine-protein kinase WNK1 [1-491] (Homo sapiens, UniProt Q9H4A3); test: WNK1 Mobility Shift Assay; details: pH 7.5
T1 construct: 1-491
Experimental: A mixture of fluorescein labeled OSR1 peptide substrate (Toray Research Center, Inc.) and ATP was prepared with final concentrations of 10 and 25 μM, respectively, in 7 μL of reaction buffer [20 mM HEPES Na (pH 7.5), 1 mM MnCl2, 0.01% Tween 20, and 2 mM DTT]. Compounds at final concentrations from 0.003 to 100 μM in 1 μL were added to the peptide/ATP mixture at a final DMSO concentration of 10%. The reaction was initiated by the addition of 2 μL of GST-WNK1 (1−491; Carna Biosciences) that was 86% pure at a final concentration of 25 nM in a 384-well plate. After incubation for 3 h at 25 °C, where 15% conversion of the substrate to the product was observed, 10 μL of a stop buffer containing 0.2% coating-3 reagent with 2 mM EDTA was added. For 800 μM ATP, the WNK1 assay was performed for 50 min at 25 °C, where 15% conversion of the substrate to the product was observed. Aliquots from each well were transferred onto a four-sipper chip on a Labchip3

[2] = molecular target: T1, Serine/threonine-protein kinase WNK1 [1-491]; test: WNK In Vitro Radiometric Assays; details: pH 7.3
Experimental: (§1) The assay utilized 5 to 10 nM of WNK1−4 protein compared to 25 nM used for mobility shift assay, enabling a more accurate comparison of selectivity among potent inhibitors. Assays measured the incorporation of 33P from [γ-33P]ATP into myelin basic protein (MBP) coated in the wells of 96-well ScintiPlates (PerkinElmer). Each well of the MBP-coated ScintiPlates held 100 μL of a solution containing 20 mM HEPES at pH 7.3, 5 mM MnCl2 (WNK1 and WNK4) or 3 mM MnCl2 (WNK2 and WNK3), 0.01% Tween-20 (WNK1, WNK3, and WNK4) or 0.02% Tween-20 (WNK2), 1 mM TCEP, 2% DMSO, 1 μM ATP (WNK1, WNK3, and WNK4) or 2 μM ATP (WNK2), 1 μCi [γ -33P]ATP (WNK1, WNK2, WNK4) or 0.25 μCi [γ-33P]ATP (WNK3), WNK kinase enzyme (5 nM WNK1, 10 nM WNK2, 5 nM WNK3, or 10 nM WNK4), and the compound at the desired concentration. The plate was sealed and mixed for 20 s at 800 rpm on a benchtop plate shaker. The plate was then placed in a 25 °C shaking incubator at 175 rpm. Reactio

[3] = molecular target: T2, Serine/threonine-protein kinase WNK2 [166-489] (Homo sapiens, UniProt Q9Y3S1); test: WNK In Vitro Radiometric Assays; details: pH 7.3
T2 construct: 166-489
T2 sequence (Q9Y3S1 166-489): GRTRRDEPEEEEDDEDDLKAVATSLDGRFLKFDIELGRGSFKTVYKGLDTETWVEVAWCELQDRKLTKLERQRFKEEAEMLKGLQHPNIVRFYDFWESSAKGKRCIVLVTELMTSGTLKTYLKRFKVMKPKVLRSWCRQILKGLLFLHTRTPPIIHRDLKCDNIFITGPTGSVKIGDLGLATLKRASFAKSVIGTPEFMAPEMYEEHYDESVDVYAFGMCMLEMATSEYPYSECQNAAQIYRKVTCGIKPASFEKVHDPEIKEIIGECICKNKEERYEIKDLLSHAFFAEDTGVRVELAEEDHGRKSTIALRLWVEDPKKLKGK
Experimental: as §1

[4] = molecular target: T3, Serine/threonine-protein kinase WNK3 [1-434] (Homo sapiens, UniProt Q9BYP7); test: WNK In Vitro Radiometric Assays; details: pH 7.3
T3 construct: 1-434
T3 sequence (Q9BYP7 1-434): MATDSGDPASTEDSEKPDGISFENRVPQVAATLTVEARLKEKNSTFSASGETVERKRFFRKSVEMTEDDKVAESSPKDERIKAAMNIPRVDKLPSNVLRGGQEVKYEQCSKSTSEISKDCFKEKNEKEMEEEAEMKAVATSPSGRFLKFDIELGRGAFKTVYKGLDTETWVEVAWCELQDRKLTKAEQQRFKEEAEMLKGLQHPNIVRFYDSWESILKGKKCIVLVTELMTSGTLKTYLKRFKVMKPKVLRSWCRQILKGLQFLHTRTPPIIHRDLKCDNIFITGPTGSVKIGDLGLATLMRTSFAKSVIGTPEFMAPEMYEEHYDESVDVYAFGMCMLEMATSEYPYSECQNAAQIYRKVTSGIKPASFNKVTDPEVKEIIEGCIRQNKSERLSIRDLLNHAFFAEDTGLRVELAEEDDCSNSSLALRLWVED
Experimental: as §1

[5] = molecular target: T4, Serine/threonine-protein kinase WNK4 [1-444] (Homo sapiens, UniProt Q96J92); test: WNK In Vitro Radiometric Assays; details: pH 7.3
T4 construct: 1-444
T4 sequence (Q96J92 1-444): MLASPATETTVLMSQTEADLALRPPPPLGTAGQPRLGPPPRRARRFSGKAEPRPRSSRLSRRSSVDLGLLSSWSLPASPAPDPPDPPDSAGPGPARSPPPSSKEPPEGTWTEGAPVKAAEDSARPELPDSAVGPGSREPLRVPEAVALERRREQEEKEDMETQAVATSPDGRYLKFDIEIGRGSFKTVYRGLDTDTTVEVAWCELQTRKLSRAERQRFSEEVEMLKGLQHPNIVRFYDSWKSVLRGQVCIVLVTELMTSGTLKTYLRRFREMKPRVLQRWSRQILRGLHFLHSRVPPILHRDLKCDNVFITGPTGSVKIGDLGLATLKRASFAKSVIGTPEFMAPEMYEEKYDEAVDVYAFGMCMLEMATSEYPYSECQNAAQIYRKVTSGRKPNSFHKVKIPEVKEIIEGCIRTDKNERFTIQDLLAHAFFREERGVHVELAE
Experimental: as §1

T1 sequence (Q9H4A3 1-491): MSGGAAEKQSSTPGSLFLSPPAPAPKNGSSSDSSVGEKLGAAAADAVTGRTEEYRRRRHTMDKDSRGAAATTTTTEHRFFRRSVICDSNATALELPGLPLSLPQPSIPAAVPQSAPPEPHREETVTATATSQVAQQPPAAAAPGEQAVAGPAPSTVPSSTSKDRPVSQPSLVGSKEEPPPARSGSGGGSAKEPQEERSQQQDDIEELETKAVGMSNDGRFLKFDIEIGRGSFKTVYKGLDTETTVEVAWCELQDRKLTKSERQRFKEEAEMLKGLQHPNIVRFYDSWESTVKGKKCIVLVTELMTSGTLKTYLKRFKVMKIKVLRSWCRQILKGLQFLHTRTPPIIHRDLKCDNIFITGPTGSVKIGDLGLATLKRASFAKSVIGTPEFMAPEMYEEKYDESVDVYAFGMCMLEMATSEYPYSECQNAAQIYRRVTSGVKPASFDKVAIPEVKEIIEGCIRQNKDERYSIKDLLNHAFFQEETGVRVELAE

- IC50 [1]: 180 nM and 150 nM
- IC50 [2]: 64 nM
- IC50 [3]: 50 nM
- IC50 [4]: 377 nM
- IC50 [5]: 187 nM
Structure (SMILES): CNc1nc(-c2ccc3c(c2)CCN3C(=O)c2ccccc2OCc2ccc(Cl)cc2)cs1 [(2-((4-Chlorobenzyl)oxy)phenyl)(5-(2-(methylamino)thiazol-4-yl)indolin-1-yl)methanone (Compound 2)]
